From patent US12371454B2, “Cyclic peptide compound having Kras inhibitory action” (priority 2019, dated 2025)
pIC50: −log10 of the molar value. Positions of bridges follow the written chain, without caps; N, C: chain ends. Non-standard residues stand in square brackets, D forms with d. Residues, ends and D or L forms follow the SMILES beside them. *: point of attachment. hPhe(3-Cl-4-CF3) = N[C@@H](CCc1ccc(C(F)(F)F)c(Cl)c1)C(=O)O; NMeDab(N,N-(CH2CF2CH2)) = CN[C@@H](CCN1CC(F)(F)C1)C(=O)O; hPhe(3-F,4-CF3) = N[C@@H](CCc1ccc(C(F)(F)F)c(F)c1)C(=O)O; hPhe(3,4-Cl2) = N[C@@H](CCc1ccc(Cl)c(Cl)c1)C(=O)O; NMePhe(4-Me) = CN[C@@H](Cc1ccc(C)cc1)C(=O)O; Phe(4-Cl) = N[C@@H](Cc1ccc(Cl)cc1)C(=O)O; Phe(3-I) = N[C@@H](Cc1cccc(I)c1)C(=O)O; NMeAla(cPr) = CN[C@@H](CC1CC1)C(=O)O; Phe(2-Me) = Cc1ccccc1C[C@H](N)C(=O)O; Gly(cPent) = N[C@H](C(=O)O)C1CCCC1; NMeCha = CN[C@@H](CC1CCCCC1)C(=O)O; Gly(N-(CH2)2OEt) = CCOCCNCC(=O)O; NMeD = CN[C@@H](CC(=O)O)C(=O)O; NMeL = CN[C@@H](CC(C)C)C(=O)O; NMeV = CN[C@H](C(=O)O)C(C)C; d(β3hA) = C[C@@H](N)CC(=O)O; Pip = O=C(O)[C@@H]1CCCCN1; NMeA = CN[C@@H](C)C(=O)O; NMeAib = CNC(C)(C)C(=O)O; Piperidide = C1CCN(*)CC1; Pyrrolidide = C1CCN(*)C1; Ac5c = NC1(C(=O)O)CCCC1; Aze = O=C(O)[C@@H]1CCN1; Sar = CNCC(=O)O

What follows are molecules tested against T1, Kras and SOS1 (biotin-tagged human Kras loaded with GDP, His-tagged human SOS1) (Homo sapiens, UniProt P01116, G12D) (assay: Protein-protein interaction inhibition between Kras and SOS1 (KrasGl2D-SOS PPI) using AlphaScreen). Conditions: AlphaScreen; biotin-tagged human Kras loaded with GDP, His-tagged human SOS1; read-out: KRAS G12D-SOS PPI IC50.
T1 construct: made in house; host or cells: E. coli (stated for Kras only)
Assay type: binding
How it was run: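 Kras was produced in E. coli, purified, then loaded with GDP. It was paired via streptavidin acceptor beads with His-SOS1 held on nickel donor beads, and proximity signal at 520-620 nm was read after 680 nm illumination.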

T1 sequence (P01116 1-188 isoform P01116-2 G12D): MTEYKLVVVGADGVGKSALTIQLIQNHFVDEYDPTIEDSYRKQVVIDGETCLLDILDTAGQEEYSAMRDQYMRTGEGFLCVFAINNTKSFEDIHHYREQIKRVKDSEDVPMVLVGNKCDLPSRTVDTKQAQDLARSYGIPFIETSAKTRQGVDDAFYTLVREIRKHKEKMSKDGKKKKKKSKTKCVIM

Compound | pIC50
CC[C@H](C)[C@@H]1NC(=O)[C@H](CC(C)C)N(C)C(=O)C[C@@H](C(=O)N2CCCC2)N(C)C(=O)[C@H](CC(C)C)NC(=O)C(C)(C)N(C)C(=O)[C@H](CC(C)C)NC(=O)[C@H](CCc2ccc(C(F)(F)F)c(F)c2)NC(=O)CN(C)C(=O)[C@H](CC2CCCCC2)N(C)C(=O)CN(C)C(=O)CN(C)C1=O [Compound 312] ([NMeL]I[Sar][Sar][NMeCha][Sar][hPhe(3-F,4-CF3)]L[NMeAib]L[NMeD]-Pyrrolidide; lactam N-11) | 9.00
CC[C@H](C)[C@@H]1NC(=O)[C@H](CC(C)C)N(C)C(=O)C[C@@H](C(=O)N2CCCCC2)N(C)C(=O)[C@H](CC(C)C)NC(=O)C(C)(C)N(C)C(=O)[C@H](Cc2ccc(OC)cc2)NC(=O)[C@H](Cc2cccc(I)c2)NC(=O)CN(C)C(=O)[C@H](CC2CCCCC2)N(C)C(=O)CN(C)C(=O)CN(C)C1=O [Compound 320] ([NMeL]I[Sar][Sar][NMeCha][Sar][Phe(3-I)]Y(Me)[NMeAib]L[NMeD]-Piperidide; lactam N-11) | 8.00
CC[C@H](C)[C@@H]1NC(=O)[C@H](CC(C)C)N(C)C(=O)C[C@@H](C(=O)N2CCCCC2)N(C)C(=O)[C@H](C(C)C)N(C)C(=O)C2(CCCC2)NC(=O)[C@@H]2CCCN2C(=O)[C@H](CCc2ccc(Cl)c(Cl)c2)NC(=O)CN(C)C(=O)[C@H](CC2CCCCC2)N(C)C(=O)[C@@H]2CCCCN2C(=O)CN(C)C1=O [Compound 324] ([NMeL]I[Sar][Pip][NMeCha][Sar][hPhe(3,4-Cl2)]P[Ac5c][NMeV][NMeD]-Piperidide; lactam N-11) | 6.42
CC[C@H](C)[C@@H]1NC(=O)[C@H](CC(C)C)N(C)C(=O)C[C@@H](C(=O)N2CCCCC2)N(C)C(=O)[C@H](C(C)C)N(C)C(=O)C2(CCCC2)NC(=O)[C@@H]2CCCN2C(=O)[C@H](CCc2ccc(C(F)(F)F)c(Cl)c2)NC(=O)CN(C)C(=O)[C@H](CC2CC2)N(C)C(=O)CN(C)C(=O)CN(C)C1=O [Compound 325] ([NMeL]I[Sar][Sar][NMeAla(cPr)][Sar][hPhe(3-Cl-4-CF3)]P[Ac5c][NMeV][NMeD]-Piperidide; lactam N-11) | 7.85
CCOCCN1CC(=O)N(C)CC(=O)N(C)[C@@H](CC2CCCCC2)C(=O)N(C)CC(=O)N[C@@H](CCc2ccc(C(F)(F)F)c(Cl)c2)C(=O)N2CCC[C@H]2C(=O)NC2(CCCC2)C(=O)N(C)[C@@H](C(C)C)C(=O)N[C@H](C)CC(=O)N(C)[C@@H](CC(C)C)C(=O)N[C@@H]([C@@H](C)CC)C1=O [Compound 329] (cyclo([Ac5c][NMeV][d(β3hA)][NMeL]I[Gly(N-(CH2)2OEt)][Sar][NMeCha][Sar][hPhe(3-Cl-4-CF3)]P)) | 7.40
CC[C@H](C)[C@@H]1NC(=O)[C@H](CC(C)C)N(C)C(=O)C[C@@H](C(=O)N2CCCCC2)N(C)C(=O)[C@H](CC(C)C)NC(=O)C(C)(C)N(C)C(=O)[C@H](Cc2ccc(Cl)cc2)NC(=O)[C@H](Cc2cccc(I)c2)NC(=O)CN(C)C(=O)[C@H](CC2CCCCC2)N(C)C(=O)CN(C)C(=O)CN(C)C1=O [Compound 330] ([NMeL]I[Sar][Sar][NMeCha][Sar][Phe(3-I)][Phe(4-Cl)][NMeAib]L[NMeD]-Piperidide; lactam N-11) | 7.10
CC[C@H](C)[C@@H]1NC(=O)[C@H](C)N(C)C(=O)C[C@@H](C(=O)N2CCCCC2)N(C)C(=O)[C@H](C(C)C)N(C)C(=O)[C@H](CC(C)C)NC(=O)[C@H](CCN2CC(F)(F)C2)N(C)C(=O)[C@H](CCc2ccc(C(F)(F)F)c(Cl)c2)NC(=O)CN(C)C(=O)[C@H](CC2CCCCC2)N(C)C(=O)CN(C)C(=O)CN(C)C1=O [Compound 331] ([NMeA]I[Sar][Sar][NMeCha][Sar][hPhe(3-Cl-4-CF3)][NMeDab(N,N-(CH2CF2CH2))]L[NMeV][NMeD]-Piperidide; lactam N-11) | 7.52
CC(C)C[C@H]1C(=O)N[C@@H](C2CCCC2)C(=O)N(C)CC(=O)N(C)CC(=O)N(C)[C@@H](CC2CCCCC2)C(=O)N(C)CC(=O)N[C@@H](CCc2ccc(C(F)(F)F)c(Cl)c2)C(=O)N2CCC[C@H]2C(=O)NC2(CCCC2)C(=O)N(C)[C@@H](C(C)C)C(=O)N[C@H](C)CC(=O)N1C [Compound 333] (cyclo([Ac5c][NMeV][d(β3hA)][NMeL][Gly(cPent)][Sar][Sar][NMeCha][Sar][hPhe(3-Cl-4-CF3)]P)) | 6.96
CC[C@H](C)[C@@H]1NC(=O)[C@H](CC(C)C)N(C)C(=O)C[C@@H](C(=O)N2CCCCC2)N(C)C(=O)[C@H](CC(C)C)NC(=O)C(C)(C)N(C)C(=O)[C@H](Cc2ccccc2C)NC(=O)[C@H](Cc2cccc(I)c2)NC(=O)CN(C)C(=O)[C@H](Cc2ccc(C)cc2)N(C)C(=O)[C@@H]2CCN2C(=O)CN(C)C1=O [Compound 335] ([NMeL]I[Sar][Aze][NMePhe(4-Me)][Sar][Phe(3-I)][Phe(2-Me)][NMeAib]L[NMeD]-Piperidide; lactam N-11) | 7.17
